Where a SMILES comes first, the peptide text is derived from it. [ ]: non-standard residue; d: D form. Phe(4-NO2) = N[C@@H](Cc1ccc([N+](=O)[O-])cc1)C(=O)O; Oic = O=C(O)[C@@H]1C[C@@H]2CCCC[C@@H]2N1; Phe(4-F) = N[C@@H](Cc1ccc(F)cc1)C(=O)O; Tic = O=C(O)[C@@H]1Cc2ccccc2CN1; Dap = NC[C@H](N)C(=O)O; βAla = NCCC(=O)O
Assays:
[1] = test system: Mycobacterium ranae (ATCC 110); settings: ATCC 110
[2] = test system: Staphylococcus aureus Methicillin/Gentamicin/Tetracycline Resistant (ATCC 33592); settings: in vitro MIC; tested at 100, 30, 10, 3, 1, 0.3 and 0.1 μM in 1% DMSO

SMILES	Minimum Inhibitory Concentration Mycobacterium ranae [1]	Minimum Inhibitory Concentration Staphylococcus aureus ME/GM/TC resistant [2]
CC(=O)NCC(=O)N[C@@H](Cc1ccc([N+](=O)[O-])cc1)C(=O)N1Cc2ccccc2C[C@H]1C(=O)N1[C@H](C(=O)NCC(=O)N[C@@H](CCCCN)C(=O)N2Cc3ccccc3C[C@H]2C(=O)N2[C@H](C(=O)NCC(=O)N[C@@H](Cc3ccc([N+](=O)[O-])cc3)C(=O)N3Cc4ccccc4C[C@H]3C(=O)N3[C@H](C(=O)NCC(=O)N[C@@H](CCCCN)C(=O)N4Cc5ccccc5C[C@H]4C(=O)N[C@@H](CCCCN)C(=O)N[C@@H](CCCCN)C(=O)N[C@@H](CCCCN)C(=O)N[C@@H](CCCCN)C(N)=O)C[C@@H]4CCCC[C@@H]43)C[C@@H]3CCCC[C@@H]32)C[C@@H]2CCCC[C@@H]21 [FKAB-1Go2, Ac-G-Nph-Tic-Oic-GK-Tic-Oic-G-Nph-Tic-Oic-GK-Tic-KKKK-CONH2] (Ac-G[Phe(4-NO2)][Tic][Oic]GK[Tic][Oic]G[Phe(4-NO2)][Tic][Oic]GK[Tic]KKKK-NH2)	10 µM	
CC(=O)NCCC(=O)N[C@@H](Cc1ccc(F)cc1)C(=O)N1Cc2ccccc2C[C@H]1C(=O)N1[C@H](C(=O)NCCC(=O)N[C@@H](CCCCN)C(=O)N2Cc3ccccc3C[C@H]2C(=O)N2[C@H](C(=O)NCCC(=O)N[C@@H](Cc3ccc(F)cc3)C(=O)N3Cc4ccccc4C[C@H]3C(=O)N3[C@H](C(=O)NCCC(=O)N[C@@H](CCCCN)C(=O)N4Cc5ccccc5C[C@H]4C(=O)N[C@@H](CN)C(=O)N[C@@H](CN)C(=O)N[C@@H](CN)C(=O)N[C@@H](CN)C(N)=O)C[C@@H]4CCCC[C@@H]43)C[C@@H]3CCCC[C@@H]32)C[C@@H]2CCCC[C@@H]21 [FKAB-1Gv, Ac-βAla-Fpa-Tic-Oic-βAla-K-Tic-Oic-βAla-Fpa-Tic-Oic-βAla-K-Tic-Dpr-Dpr-Dpr-Dpr-CONH2] (Ac-[βAla][Phe(4-F)][Tic][Oic][βAla]K[Tic][Oic][βAla][Phe(4-F)][Tic][Oic][βAla]K[Tic][Dap][Dap][Dap][Dap]-NH2)	30 µM	
CC(=O)NCC(=O)N[C@@H](Cc1ccccc1)C(=O)N1[C@H](C(=O)N2Cc3ccccc3C[C@H]2C(=O)NCC(=O)N[C@@H](CCCCN)C(=O)N2[C@H](C(=O)N3Cc4ccccc4C[C@H]3C(=O)NCC(=O)N[C@@H](Cc3ccccc3)C(=O)N3[C@H](C(=O)N4Cc5ccccc5C[C@H]4C(=O)NCC(=O)N[C@@H](CCCCN)C(=O)N4Cc5ccccc5C[C@H]4C(=O)N[C@@H](CCCCN)C(=O)N[C@@H](CCCCN)C(=O)N[C@@H](CCCCN)C(=O)N[C@@H](CCCCN)C(N)=O)C[C@@H]4CCCC[C@@H]43)C[C@@H]3CCCC[C@@H]32)C[C@@H]2CCCC[C@@H]21 [FKABB-1G1, Ac-GF-Oic-Tic-GK-Oic-Tic-GF-Oic-Tic-GK-Tic-KKKK-CONH2] (Ac-GF[Oic][Tic]GK[Oic][Tic]GF[Oic][Tic]GK[Tic]KKKK-NH2)	30 µM	
CC[C@H](C)[C@H](NC(=O)CN)C(=O)NCC(=O)N[C@@H](CCCCN)C(=O)N[C@@H](Cc1ccccc1)C(=O)N[C@@H](CC(C)C)C(=O)N[C@@H](Cc1c[nH]cn1)C(=O)N[C@@H](CO)C(=O)N[C@@H](C)C(=O)NCC(=O)N[C@@H](CCCCN)C(=O)N[C@@H](Cc1ccccc1)C(=O)NCC(=O)N[C@@H](CCCCN)C(=O)N[C@@H](C)C(=O)N[C@@H](Cc1ccccc1)C(=O)N[C@H](C(=O)NCC(=O)N[C@@H](CCC(=O)O)C(=O)N[C@H](C(=O)N[C@@H](CCSC)C(=O)N[C@@H](CCCCN)C(=O)N[C@@H](CO)C(=O)O)[C@@H](C)CC)C(C)C [Magainin I, magainin I, reference compound] (H-GIGKFLHSAGKFGKAFVGEIMKS-OH; N-terminus and C-terminus assumed)		> 100 µM

— patent US20120197004A1, “NOVEL ANTI-MICROBIAL PEPTIDOMIMETIC COMPOUNDS AND METHODS TO CALCULATE ANTI-MICROBIAL ACTIVITY” (priority 2006, published 2012)
